{
  "source": "patent US7229646B2",
  "about": "“Methods and compositions for modulating immune response and for the treatment of inflammatory disease” (Foodscience Corporation, priority 1999, dated 2007)",
  "key": {"[1]": {"tested_on": "humoral and cellular immunity", "details": "Graber et al., 1981; cited from earlier work"}, "il-10": {"tested_on": "il-10", "assay": "Serum cytokine ELISA, il-10", "format": "in vivo, MRI-lpr mice", "details": "ELISA (FIG. 2)", "description": "(§1) MRI-lpr mice were used to study the effects of a combination of DMG and PCE on components of the immune system and on the progression of the SLE disease. Forty MRI-lpr mice were divided into four groups of ten mice each: a control group, a PCE treated group, a DMG treated group, and a PCE-DMG treated group. The control group was given standard mouse chow and water. […] The PCE group was given a PCE-mouse chow mix and water. The PCE-DMG combination group was given a PCE-mouse chow mix and DMG water. […] The mice were given food and water ad libitum. It is estimated that the mice, with a size range of 30–50 grams, consumed about 1–3 mg/day of DMG and 2–6 mg/day of PCE. The mice were weighed weekly and 100 ul of blood was collected via orbital bleed on a weekly basis. The collected blood was centrifuged and the serum was recovered and stored at −20° C. for analysis at the end of the twelve week experiment. After twelve weeks, the mice were sacrificed and the spleens, kidneys, and livers were harvested. […] The spleens were processed and the cells recovered were quantified by flow cytometry using fluorescent anti-CD4, anti-CD8 and anti-CD19 antibodies (Pharmingen, San Diego, Calif.). Cytokine levels in the serum and anti-single stranded and double stranded DNA antibody levels in the serum were determined using an enzyme linked immunosorbent assay (ELISA)."}, "CD8^+ T cells": {"tested_on": "CD8^+ T cells", "assay": "Spleen lymphocyte populations by flow cytometry, CD8+ T cells", "format": "in vivo, MRI-lpr mice", "details": "flow cytometry after twelve weeks (FIG. 3)", "description": "as §1"}, "il-6": {"tested_on": "il-6", "assay": "Serum cytokine ELISA, il-6", "format": "in vivo, MRI-lpr mice", "details": "ELISA (FIG. 2)", "description": "as §1"}, "[2]": {"tested_on": "B-cells, T cells and macrophages", "details": "in humans; cited from earlier work"}, "lactic acid levels": {"tested_on": "lactic acid levels", "details": "animals under extreme stress; cited from earlier work"}, "CD19^+ B cell": {"tested_on": "CD19^+ B cell", "assay": "Spleen lymphocyte populations by flow cytometry, CD19+ B cells", "format": "in vivo, MRI-lpr mice", "details": "flow cytometry after twelve weeks (FIG. 3)", "description": "as §1"}, "anti-ssDNA antibody": {"tested_on": "anti-ssDNA antibody", "assay": "Serum anti-ssDNA antibody ELISA", "format": "in vivo, MRI-lpr mice", "details": "time course to 11th week; versus control (FIG. 5)", "description": "as §1"}},
  "data": [
    {"compound": "CN(C)CC(=O)O", "note": "[DMG, N,N-dimethylglycine]", "values": [
      {"measurement": "effect on humoral and cellular immunity", "setting": "[1]", "result": "stimulation of both humoral and cellular immunity"},
      {"measurement": "levels of serum il-10", "setting": "il-10", "result": "higher levels of IL-10 than in controls"},
      {"measurement": "CD8^+ T cells", "setting": "CD8^+ T cells", "result": "No effect"},
      {"measurement": "levels of serum il-6", "setting": "il-6", "result": "significantly lower levels of il-6 than control animals"},
      {"measurement": "B-cell antibody responses", "setting": "[2]", "result": "much higher antibody responses"},
      {"measurement": "activity of T cells and macrophages", "setting": "[2]", "result": "enhanced"},
      {"measurement": "lactic acid levels", "setting": "lactic acid levels", "result": "decreased lactic acid levels"},
      {"measurement": "oxygen utilization", "setting": "lactic acid levels", "result": "increased oxygen utilization"},
      {"measurement": "CD19^+ B cell percentages", "setting": "CD19^+ B cell", "result": "No effect"},
      {"measurement": "anti-ssDNA antibody levels in the serum", "setting": "anti-ssDNA antibody", "result": "appeared to be leveling out"}
    ]}
  ]
}
